The results in this text go back to patent US20100121049A1, “INDENOISOQUINOLINONE ANALOGS AND METHODS OF USE THEREOF” (INOTEK PHARMACEUTICALS CORPORATION, priority 2007, published 2010).

This assay addresses T1, PARP (Mus musculus, UniProt P11103).
T1 construct: PARP Activity in Cultured Macrophages, Using a Whole-Cell Based Assay; host or cells: murine RAW macrophages
Briefly: PARP activity in cultured macrophages, whole-cell based assay (3H-NAD+ incorporation after hydrogen peroxide). Conditions: murine RAW macrophages; compound 1 hour prior to hydrogen peroxide (0.5 mM) for 25 minutes; PARP activity by 3H-NAD+. The protocol: Effect of Indenoisoquinolinone Analogs on PARP Activity in Cultured Macrophages, Using a Whole-Cell Based Assay
The murine RAW macrophages (ATCC, American Type Culture Collection, Manassas, Va.) were grown in RPMI […] (Invitrogen Life Technologies; Carlsbad, Calif.) medium supplemented with 10% heat-inactivated FBS, 2 mM L-glutamine, and 100 U/ml of penicillin and streptomycin. Cells, between passages 5 and 15, were seeded at a density of 250,000 cells/well in 12 well plates and allowed to grow 48 hours before use. Growth medium was changed on the day of use. Cells were treated with an Indenoisoquinolinone Analog diluted in a growth medium supplemented with 10% fetal bovine serum (FBS) for 1 hour prior to the addition of hydrogen peroxide (0.5 mM) for a further 25 minutes. For the measurement of PARP activity, media was removed and replaced with 0.5 ml of the assay buffer (56 mM HEPES-pH 7.5, 28 mM KCl, 28 mM NaCl, 2 mM MgCl2, 0.01% digitonin, and 0.5 μCi/m1 of ^3H-NAD^+) for 20 minutes. After aspirating the assay buffer, cells were lysed and transferred to eppendorf tubes containing 250 μl of 50% ice-cold trichloroacetic acid (TCA), which were then placed at 4° C. for 4 hours. Samples were centrifuged at 10,000 g for 10 minutes and supernatant removed. The pellets were washed twice with 500 μl of ice-cold 5% w/v TCA. The pellets were then solubilized in 250 μl of NaOH (0.1 M) containing 2% SDS overnight at 37° C. and the PARP activity was then determined by measuring the radioactivity incorporated using a Wallac scintillation counter. The solubilized protein (250 μl) was mixed with 5 ml of scintillation fluid (ScintiSafe Plus, Fisher Scientific) before being counted for 3 minutes. EC50 values were determined from a dose-response curve.

Where a name gives a salt, the structure may show the parent alone.

T1 sequence (P11103 whole entry): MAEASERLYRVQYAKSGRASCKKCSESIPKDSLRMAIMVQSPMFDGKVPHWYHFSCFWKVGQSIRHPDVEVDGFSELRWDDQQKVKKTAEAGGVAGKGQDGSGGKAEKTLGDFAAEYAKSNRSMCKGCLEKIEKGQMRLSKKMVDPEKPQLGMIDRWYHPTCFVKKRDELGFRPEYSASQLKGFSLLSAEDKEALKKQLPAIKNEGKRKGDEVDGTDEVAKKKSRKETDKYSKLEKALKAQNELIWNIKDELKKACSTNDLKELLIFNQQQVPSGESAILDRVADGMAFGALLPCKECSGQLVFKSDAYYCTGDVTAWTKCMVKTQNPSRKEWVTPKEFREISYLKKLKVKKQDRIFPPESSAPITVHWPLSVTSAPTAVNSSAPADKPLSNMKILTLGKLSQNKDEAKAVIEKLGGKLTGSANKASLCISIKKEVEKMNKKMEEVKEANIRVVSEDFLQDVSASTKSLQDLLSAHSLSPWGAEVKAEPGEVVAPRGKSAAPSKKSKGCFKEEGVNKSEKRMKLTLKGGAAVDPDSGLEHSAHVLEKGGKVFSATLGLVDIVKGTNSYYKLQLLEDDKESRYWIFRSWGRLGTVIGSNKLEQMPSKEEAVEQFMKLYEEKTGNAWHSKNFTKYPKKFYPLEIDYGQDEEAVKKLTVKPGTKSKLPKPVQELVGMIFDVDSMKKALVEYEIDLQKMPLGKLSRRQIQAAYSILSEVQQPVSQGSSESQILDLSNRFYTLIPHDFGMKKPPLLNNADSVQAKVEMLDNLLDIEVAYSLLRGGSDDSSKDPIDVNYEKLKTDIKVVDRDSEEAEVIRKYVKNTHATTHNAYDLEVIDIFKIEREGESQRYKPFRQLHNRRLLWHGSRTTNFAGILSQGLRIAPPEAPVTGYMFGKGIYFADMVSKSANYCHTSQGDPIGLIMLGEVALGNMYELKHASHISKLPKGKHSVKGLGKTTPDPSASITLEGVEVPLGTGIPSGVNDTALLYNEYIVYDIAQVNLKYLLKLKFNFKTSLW

Usually EC50 stands for the concentration giving half of the maximal effect. Lower therefore signals an effect from little substance. In turn, `O=c1[nH]c2c(c3ccccc13)Cc1cc(CN3CCC(F)(F)CC3)ccc1-2` [Methylsulfonate salt of IIIb-15, 9-[1-(4,4-Difluoropiperidino)methyl]-5,6-dihydro-5-oxo-11-H-indeno[1,2-c]isoquinoline methylsulfonate] yielded an EC50 of 55 nM. With `O=c1[nH]c2c(c3cccc(Cl)c13)Cc1c(CNC3CCCC3)cccc1-2` [Va-1, 4-chloro-10-((cyclopentylamino)methyl)-6,11-dihydro-5H-indeno[1,2-c]isoquinolin-5-one], the EC50 is over 100 nM. Then `O=c1[nH]c2c(c3ccc(F)cc13)Cc1c(CNC3CCCC3)cccc1-2` [Va-3, 10-((cyclopentylamino)methyl)-3-fluoro-6,11-dihydro-5H-indeno[1,2-c]isoquinolin-5-one], with 9 nM. To `O=c1[nH]c2c(c3cccc(F)c13)Cc1c(CNC3CCCC3)cccc1-2` [Va-4, 10-((cyclopentylamino)methyl)-4-fluoro-6,11-dihydro-5H-indeno[1,2-c]isoquinolin-5-one] belongs 4 nM; to `O=c1[nH]c2c(c3ccc(F)cc13)Cc1c(CNC3CCOCC3)cccc1-2` [Va-5, 3-fluoro-10-((tetrahydro-2H-pyran-4-ylamino)methyl)-6,11-dihydro-5H-indeno[1,2-c]isoquinolin-5-one], 5 nM. For `O=c1[nH]c2c(c3c(F)cccc13)Cc1c(CNC3CCCC3)cccc1-2` [Va-7, 10-((cyclopentylamino)methyl)-1-fluoro-6,11-dihydro-5H-indeno[1,2-c]isoquinolin-5-one], the midpoint of the response, the EC50, lay at 5 nM.

`O=c1[nH]c2c(c3ccccc13)Cc1c(CNC3(CO)CCCC3)cc(F)cc1-2` [Va-9, 8-fluoro-10-((1-(hydroxymethyl)cyclopentylamino)methyl)-6,11-dihydro-5H-indeno[1,2-c]isoquinolin-5-one]: the EC50 was found to be 3 nM.

Take `O=c1[nH]c2c(c3ccc(F)cc13)Cc1c(CNC3(CO)CCCC3)cc(F)cc1-2` [Va-10, 3,8-difluoro-10-((1-(hydroxymethyl)cyclopentylamino)methyl)-6,11-dihydro-5H-indeno[1,2-c]isoquinolin-5-one]: a half-maximal effect (EC50) was put at 3 nM.
